From ChEMBL document CHEMBL1156762, “Deciphering the mechanism of carbonic anhydrase inhibition with coumarins and thiocoumarins” (J Med Chem, 2010)

Tests used:
[1] = target: Carbonic anhydrase 5A, mitochondrial (Homo sapiens, UniProt P35218)
[2] = target: Carbonic anhydrase 7 (Homo sapiens, UniProt P43166)
[3] = target: Carbonic anhydrase 12 (Homo sapiens, UniProt O43570)
[4] = target: Carbonic anhydrase 9 (Homo sapiens, UniProt Q16790)
[5] = target: Carbonic anhydrase 14 (Homo sapiens, UniProt Q9ULX7)
[6] = target: Carbonic anhydrase 13 (Mus musculus, UniProt Q9D6N1)
[7] = target: T1, Carbonic anhydrase 15 (Mus musculus, UniProt Q99N23)
T1 sequence (Q99N23 whole entry): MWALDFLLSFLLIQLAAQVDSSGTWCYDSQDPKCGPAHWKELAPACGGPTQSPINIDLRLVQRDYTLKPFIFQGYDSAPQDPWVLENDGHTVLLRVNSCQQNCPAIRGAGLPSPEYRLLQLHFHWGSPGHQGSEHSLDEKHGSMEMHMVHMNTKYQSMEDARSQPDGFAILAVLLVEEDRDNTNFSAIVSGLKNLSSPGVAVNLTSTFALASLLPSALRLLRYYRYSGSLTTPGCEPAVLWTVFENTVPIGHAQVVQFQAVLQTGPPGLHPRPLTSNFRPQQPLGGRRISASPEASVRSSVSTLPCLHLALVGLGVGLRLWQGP

[8] = target: Carbonic anhydrase 6 (Homo sapiens, UniProt P23280)
[9] = target: Carbonic anhydrase 3 (Homo sapiens, UniProt P07451)
[10] = target: Carbonic anhydrase 4 (Homo sapiens, UniProt P22748)
[11] = target: Carbonic anhydrase 5B, mitochondrial (Homo sapiens, UniProt Q9Y2D0)
[12] = target: T2, Carbonic anhydrase 2 (Homo sapiens, UniProt P00918)
[13] = target: T2, Carbonic anhydrase 2; remark: listed apart in the source

Sequence of Carbonic anhydrase 7 (P43166 whole entry): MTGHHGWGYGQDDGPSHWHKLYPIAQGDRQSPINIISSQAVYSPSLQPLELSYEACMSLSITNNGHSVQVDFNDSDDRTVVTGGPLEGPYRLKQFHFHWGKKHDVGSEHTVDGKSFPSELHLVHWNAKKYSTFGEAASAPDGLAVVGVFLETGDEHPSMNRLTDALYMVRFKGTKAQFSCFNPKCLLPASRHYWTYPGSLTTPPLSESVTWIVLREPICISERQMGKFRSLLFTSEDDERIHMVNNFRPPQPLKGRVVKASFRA
Sequence of Carbonic anhydrase 13 (Q9D6N1 whole entry): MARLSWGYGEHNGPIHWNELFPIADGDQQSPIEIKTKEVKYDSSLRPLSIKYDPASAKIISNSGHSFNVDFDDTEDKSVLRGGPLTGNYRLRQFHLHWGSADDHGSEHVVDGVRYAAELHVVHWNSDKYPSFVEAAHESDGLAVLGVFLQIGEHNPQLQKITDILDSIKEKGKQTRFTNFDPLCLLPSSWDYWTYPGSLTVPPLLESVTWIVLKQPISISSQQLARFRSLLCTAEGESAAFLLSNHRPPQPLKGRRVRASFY
Sequence of Carbonic anhydrase 14 (Q9ULX7 whole entry): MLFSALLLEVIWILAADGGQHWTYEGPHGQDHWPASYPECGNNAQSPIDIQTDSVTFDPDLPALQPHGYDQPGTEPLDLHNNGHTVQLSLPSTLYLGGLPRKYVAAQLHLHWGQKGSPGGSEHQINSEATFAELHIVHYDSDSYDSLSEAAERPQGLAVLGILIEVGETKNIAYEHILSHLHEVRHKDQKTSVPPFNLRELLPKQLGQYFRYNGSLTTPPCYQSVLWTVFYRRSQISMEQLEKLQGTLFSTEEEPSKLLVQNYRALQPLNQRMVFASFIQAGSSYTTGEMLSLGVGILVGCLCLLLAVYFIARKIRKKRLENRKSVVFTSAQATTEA
Sequence of Carbonic anhydrase 6 (P23280 whole entry): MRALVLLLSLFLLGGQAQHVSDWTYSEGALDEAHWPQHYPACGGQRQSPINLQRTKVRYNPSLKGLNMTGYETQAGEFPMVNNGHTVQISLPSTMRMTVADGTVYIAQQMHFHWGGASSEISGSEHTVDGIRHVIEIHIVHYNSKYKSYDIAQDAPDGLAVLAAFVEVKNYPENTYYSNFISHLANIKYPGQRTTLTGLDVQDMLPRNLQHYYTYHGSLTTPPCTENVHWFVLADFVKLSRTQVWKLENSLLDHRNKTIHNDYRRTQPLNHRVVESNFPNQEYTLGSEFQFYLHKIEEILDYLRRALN
Sequence of Carbonic anhydrase 12 (O43570 whole entry): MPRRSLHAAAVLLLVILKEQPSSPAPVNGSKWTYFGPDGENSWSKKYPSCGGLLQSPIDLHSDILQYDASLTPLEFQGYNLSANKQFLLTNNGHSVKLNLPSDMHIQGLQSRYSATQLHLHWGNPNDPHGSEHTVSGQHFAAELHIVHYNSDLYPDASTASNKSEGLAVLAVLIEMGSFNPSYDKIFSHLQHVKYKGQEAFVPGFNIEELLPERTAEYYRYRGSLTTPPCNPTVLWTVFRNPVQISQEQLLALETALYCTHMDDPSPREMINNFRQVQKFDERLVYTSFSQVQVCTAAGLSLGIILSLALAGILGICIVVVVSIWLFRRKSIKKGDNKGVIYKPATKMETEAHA
Sequence of Carbonic anhydrase 3 (P07451 whole entry): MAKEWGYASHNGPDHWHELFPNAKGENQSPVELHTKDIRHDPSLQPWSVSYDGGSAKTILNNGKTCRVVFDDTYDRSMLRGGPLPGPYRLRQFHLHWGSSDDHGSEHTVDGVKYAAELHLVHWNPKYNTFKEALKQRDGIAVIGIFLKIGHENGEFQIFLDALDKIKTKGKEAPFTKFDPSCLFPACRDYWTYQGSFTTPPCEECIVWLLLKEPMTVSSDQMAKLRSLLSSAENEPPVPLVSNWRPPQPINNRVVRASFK
Sequence of Carbonic anhydrase 4 (P22748 whole entry): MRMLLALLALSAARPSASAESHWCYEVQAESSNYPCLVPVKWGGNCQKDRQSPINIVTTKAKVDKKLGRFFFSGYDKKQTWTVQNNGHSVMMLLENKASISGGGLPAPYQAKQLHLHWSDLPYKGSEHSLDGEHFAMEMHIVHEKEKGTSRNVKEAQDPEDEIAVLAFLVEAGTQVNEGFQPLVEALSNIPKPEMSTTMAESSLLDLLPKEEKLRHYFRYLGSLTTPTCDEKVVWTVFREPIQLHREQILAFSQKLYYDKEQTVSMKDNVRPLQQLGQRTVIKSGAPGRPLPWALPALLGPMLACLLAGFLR
Sequence of Carbonic anhydrase 5A, mitochondrial (P35218 whole entry): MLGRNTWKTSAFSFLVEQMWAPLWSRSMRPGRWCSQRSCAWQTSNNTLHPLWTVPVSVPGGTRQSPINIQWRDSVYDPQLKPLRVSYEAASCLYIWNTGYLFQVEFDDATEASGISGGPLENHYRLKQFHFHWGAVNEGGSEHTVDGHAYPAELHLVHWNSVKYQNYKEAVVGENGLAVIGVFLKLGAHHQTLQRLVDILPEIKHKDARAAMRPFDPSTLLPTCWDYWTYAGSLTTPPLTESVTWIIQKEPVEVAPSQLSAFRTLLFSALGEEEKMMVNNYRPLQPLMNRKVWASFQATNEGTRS
Sequence of Carbonic anhydrase 5B, mitochondrial (Q9Y2D0 whole entry): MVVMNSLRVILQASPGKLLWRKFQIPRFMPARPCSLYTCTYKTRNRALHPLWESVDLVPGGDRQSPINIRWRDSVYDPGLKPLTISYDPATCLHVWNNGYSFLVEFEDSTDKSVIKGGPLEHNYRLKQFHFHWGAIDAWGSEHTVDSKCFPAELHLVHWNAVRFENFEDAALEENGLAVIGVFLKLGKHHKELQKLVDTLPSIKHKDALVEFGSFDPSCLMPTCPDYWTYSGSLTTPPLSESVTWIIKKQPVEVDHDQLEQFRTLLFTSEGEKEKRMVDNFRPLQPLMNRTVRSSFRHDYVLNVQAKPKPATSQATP

SMILES	Ki [1]	Ki [2]	Ki [3]	Ki [4]	Ki [5]	Ki [6]	Ki [7]	Ki [8]	Ki [9]	Ki [10]	Ki [11]	Ki [12]	Ki [13]
CCOc1ccc2ccc(=O)oc2c1	7.3 µM	7.2 µM	4.7 µM	1.6 µM	4.7 µM	27.4 µM	76.3 µM	5.8 µM	29 µM	22.7 µM	60.9 µM	–	–
Cc1ccc2oc(=O)c(C(=O)O)cc2c1	–	29.6 µM	–	0.048 µM	–	–	–	31.7 µM	> 500 µM	–	–	–	–
COc1ccc2oc(=O)c(C(=O)O)cc2c1	8.7 µM	4.9 µM	6.8 µM	5.7 µM	39.6 µM	8.1 µM	7.2 µM	10.5 µM	9 µM	4.9 µM	7.6 µM	0.059 µM	13.4 µM
O=c1ccc2cc(C[N+]34CN5CN(CN(C5)C3)C4)ccc2o1	–	–	–	3 µM	–	3.8 µM	–	–	–	–	–	–	–
O=c1ccc2cc(CO)ccc2o1	–	–	–	8.4 µM	–	0.047 µM	7.4 µM	–	–	–	–	–	–
COc1cccc2cc(C(=O)O)c(=O)oc12	–	–	–	5.4 µM	–	–	–	–	–	–	–	–	–
CCOC(=O)c1cc2cc(CO)ccc2oc1=O	3 µM	0.045 µM	25.6 µM	6.2 µM	4.6 µM	–	–	1.5 µM	60.9 µM	0.048 µM	2.9 µM	213 µM	24.6 µM
O=c1ccc2ccc(CCc3ccccc3)cc2o1	–	–	–	5.8 µM	–	7.3 µM	44.5 µM	8.5 µM	–	–	–	–	–
O=C(O)c1cc2ccccc2sc1=O	–	–	–	–	–	5.6 µM	4.8 µM	8.8 µM	> 500 µM	–	–	–	–
COc1ccc2c(C(=O)O)cc(=O)oc2c1	–	–	–	4.1 µM	–	0.045 µM	–	–	–	–	–	–	–
O=c1ccc2ccccc2o1 [COUMARIN]	–	3.3 µM	–	–	–	–	–	–	5.6 µM	62.2 µM	–	–	–
COc1cc2oc(=O)ccc2cc1[C@@H](O)CC(C)C	–	–	–	–	–	9.9 µM	93.1 µM	–	–	–	–	–	–
CCCOc1ccc2ccc(=O)oc2c1 [7-PROPOXYCOUMARIN]	–	–	–	–	–	6.6 µM	–	–	> 500 µM	24.6 µM	–	–	–
O=C(O)c1cc2cc(CO)ccc2oc1=O	–	–	–	–	–	3.1 µM	8.6 µM	–	–	–	–	–	–
COc1ccc2ccc(=O)oc2c1 [HERNIARIN]	> 500 µM	9.1 µM	–	–	–	–	> 500 µM	61.2 µM	161 µM	7.8 µM	–	–	–
CCOC(=O)c1cc2ccc(OC)cc2oc1=O	–	–	–	–	–	0.045 µM	6.6 µM	42 µM	71.7 µM	7.2 µM	8 µM	–	–
COC(=O)c1cc2cc(CO)ccc2oc1=O	–	–	–	8.7 µM	–	7.4 µM	7.4 µM	–	–	6.5 µM	–	–	–
CCCCOc1ccc2ccc(=O)oc2c1 [7-BUTOXYCOUMARIN]	9 µM	–	–	4.9 µM	–	6.1 µM	65.2 µM	–	–	–	–	–	–
NCc1ccc2oc(=O)ccc2c1	–	–	–	8.4 µM	–	0.04 µM	–	–	–	–	–	–	–
O=C(O)c1cc2ccccc2oc1=O [COUMARIN-3-CARBOXYLIC ACID]	9 µM	5.1 µM	2.9 µM	6.5 µM	7.4 µM	20.3 µM	5.6 µM	31.3 µM	6.6 µM	3.8 µM	6.8 µM	–	> 500 µM
